How the values were obtained:
subjects = assay: Test Example 1: intake of ornithine tablets, improvement in waking compared with before administration; format: in vivo, human
normal subjects = assay: Test Example 2: double blind parallel group test against tablets without ornithine, going to sleep and waking rated by Visual Analogue Scale (VAS) method; format: in vivo, human; conditions: 6 tablets of example 1 a day for 3 weeks; 7 subjects per group; 45 to 64 year
Method: Six tablets of example 1 (the tablet containing ornithine) or 6 tablets of comparative example 1 (the tablet not containing ornithine) were administered to two groups with 7 subjects out of 14 normal subjects of each male and female between 45 to 64 year a day for 3 weeks.
Before the administration and just after the administration, the improvements in going to sleep and waking of each subject were evaluated using Visual Analogue Scale (VAS) method.
Specifically each end of the segment has a criterion of expression. Referring to FIG. 1, each subject marked somewhere in the line, corresponding to each term of the questionnaires. The distance (mm) from the left end of the line to the marked point was measured and the difference between before and after the test was calculated. The difference by the value before the test was shown in the percentage calculated; and each average value and standard deviation for each group were calculated. Further the average improvement ratio (%) was the value obtained by subtracting the average value of the placebo group from the average value of ornithine group. Further, it was confirmed that there was no difference between two groups before the administration test.
Further the test was carried out under a random assignment and the comparison between the double blind parallel groups was carried out. […]

NCCC[C@H](N)C(=O)O [ornithine]
effect on the waking process (conclusion of test result) (subjects; oral intake of ornithine tablets): improved the waking process
subjects who showed an improvement in waking (subjects; oral, ornithine taken just before going to sleep): 3 subjects out of the 6 subjects
effect of intake just before going to sleep (conclusion of test result) (subjects; oral, taken just before going to sleep): effective
improvement in going to sleep (VAS, average improvement ratio vs placebo group, FIG. 2) (normal subjects): improvement in going to sleep were obtained
improvement in the waking process (VAS, average improvement ratio vs placebo group, FIG. 2) (normal subjects): improvement in the waking process was evident
